Values joined by “and” are separate entries in the source; they are usually repeats but may differ in a detail not shown here. Equal values may be shown once.
Test system: 947758-054-R-J2-PDC spheroid growth, percent test/control
Test: Anticancer human tumor 947758-054-R-J2-PDC patient-derived colon adenocarcinoma cell line growth inhibition [CLK]
Conditions: spheroids with HUVEC and MSC; for viability, T/C: stronger effect = lower value
In short: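 Patient-derived tumor cells grown as complex spheroids with HUVEC endothelial cells and mesenchymal stem cells, treated with drug combinations. Concentrations descend in half-log steps from near clinical Cmax, or from 10 microM if Cmax unknown.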
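Further: spheroids exposed to compounds for one week before readout.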
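Wherever viability, T/C is given: 100% = DMSO vehicle control wells.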

Nc1ccn(C2OC(CO)C(O)C2(F)F)c(=O)n1 (centres undefined) + CN1CCN(c2cc(C(=O)Nc3cc4cc(-c5cnn(C)c5)ccc4cn3)ccn2)CC1
IC50 (curve of first compound, second compound 0.0316 µM): 33.1 nM
IC50 (curve of first compound, second compound 0.1 µM): < 31.6 nM
IC50 (curve of first compound, second compound 0.316 µM): < 31.6 nM
IC50 (curve of first compound, second compound 1 µM): < 31.6 nM
IC50 (curve of first compound, second compound 3.16 µM): < 31.6 nM
IC50 (curve of first compound, second compound 10 µM): < 31.6 nM
viability, T/C (second compound 0.0316 µM, first compound 0.0316 µM): 51.6%
viability, T/C (second compound 0.0316 µM, first compound 0.1 µM): 9.51%
viability, T/C (second compound 0.0316 µM, first compound 0.316 µM): 11.7%
viability, T/C (second compound 0.0316 µM, first compound 1 µM): 13.8%
viability, T/C (second compound 0.0316 µM, first compound 3.16 µM): 10.8%
viability, T/C (second compound 0.0316 µM, first compound 10 µM): 6.34%
viability, T/C (second compound 0.1 µM, first compound 0.0316 µM): 20.8%
viability, T/C (second compound 0.1 µM, first compound 0.1 µM): 6.62%
viability, T/C (second compound 0.1 µM, first compound 0.316 µM): 10.4%
viability, T/C (second compound 0.1 µM, first compound 1 µM): 10.6%
viability, T/C (second compound 0.1 µM, first compound 3.16 µM): 7.69%
viability, T/C (second compound 0.1 µM, first compound 10 µM): 7.26%
viability, T/C (second compound 0.316 µM, first compound 0.0316 µM): 2.49%
viability, T/C (second compound 0.316 µM, first compound 0.1 µM): 1.07%
viability, T/C (second compound 0.316 µM, first compound 0.316 µM): 1.17%
viability, T/C (second compound 0.316 µM, first compound 1 µM): 0.85%
viability, T/C (second compound 0.316 µM, first compound 3.16 µM): 0.53%
viability, T/C (second compound 0.316 µM, first compound 10 µM): 3.53%
viability, T/C (second compound 1 µM, first compound 0.0316 µM): 0.13%
viability, T/C (second compound 1 µM, first compound 0.1 µM): 0.13%
viability, T/C (second compound 1 µM, first compound 0.316 µM): 2.17%
viability, T/C (second compound 1 µM, first compound 1 µM): 0.08%
viability, T/C (second compound 1 µM, first compound 3.16 µM): 0.45%
viability, T/C (second compound 1 µM, first compound 10 µM): 0.11%
viability, T/C (second compound 3.16 µM, first compound 0.0316 µM): 1.66%
viability, T/C (second compound 3.16 µM, first compound 0.1 µM): 0.22%
viability, T/C (second compound 3.16 µM, first compound 0.316 µM): 0.38%
viability, T/C (second compound 3.16 µM, first compound 1 µM): 0.21%
viability, T/C (second compound 3.16 µM, first compound 3.16 µM): 0.27%
viability, T/C (second compound 3.16 µM, first compound 10 µM): 0.3%
viability, T/C (second compound 10 µM, first compound 0.0316 µM): 0.27%
viability, T/C (second compound 10 µM, first compound 0.1 µM): 0.28%
viability, T/C (second compound 10 µM, first compound 0.316 µM): 0.31%
viability, T/C (second compound 10 µM, first compound 1 µM): 0.32%
viability, T/C (second compound 10 µM, first compound 3.16 µM): 1.07%
viability, T/C (second compound 10 µM, first compound 10 µM): 0.35%

Cn1ncnc1[C@H]1c2n[nH]c(=O)c3cc(F)cc(c23)N[C@@H]1c1ccc(F)cc1
viability, T/C (compound 0.000316 µM): 90.1% and 87.9%
viability, T/C (compound 0.001 µM): 103% and 93.8%
viability, T/C (compound 0.00316 µM): 96.8% and 101%
viability, T/C (compound 0.01 µM): 96.7% and 94.4%
viability, T/C (compound 0.0316 µM): 117% and 87.6%
viability, T/C (compound 0.1 µM): 130% and 119%
IC50 (curve of compound): > 100 nM

Reference: PubChem BioAssay AID2060605 (Molecular Pharmacology Branch, DTP, NCI, 2025)
